Data taken from US8741962B2, “Process for preparation of Rasagiline and salts thereof” (USV Limited, priority 2009, dated 2014).
Values joined by “and” are separate entries in the source; they are usually repeats but may differ in a detail not shown here. Equal values may be shown once. Read-outs that look alike come from different tables or passages of the source. Values belong to the compound of their own block, whether it stands above or below them.

How the values were obtained:
[1] = Particle size determination by dry method (Malvern Mastersizer 2000, Scirocco 2000 dry unit); details: for d10 / d50 / d90: not micronized, as obtained by the process
Experimental: Rasagiline mesylate is further micronized using conventional micronization techniques. After micronization, the sample is preferably passed through 100 mesh sieve and the particle size is measured using a Malvern Mastersizer 2000 dry unit, Scirocco 2000 which is commercially available from Malvern Instruments Ltd., United Kingdom.

[2] = Excerpt: The present inventors have conducted extensive research work for solving the problem of agglomerization of micronized Rasagiline or salt thereof.
[3] = wet method
Remark: listed apart in the source
[4] = Pack-1 (Glass bottle), after one month
[5] = Pack-1 (Glass bottle), micronized sample (initial)
[6] = Pack-2 (PET bottle), after one month
[7] = Pack-2 (PET bottle), micronized sample (initial)
[8] = room temperature, glass bottle or PET bottle, about one month
[9] = after micronization, dry method
[10] = before micronization, dry method

size of 90% of the total amount by volume of particles ([1]; micronized, dry method): less than 20 microns
d10 [1]: 2-9 μ
d50 [1]: 10-20 μ
d90 [1]: 40-80 μ
Structure (SMILES): Br.C#CCN[C@@H]1CCc2ccccc21 [R(+)-Rasagiline hydrobromide, (1R)-2,3-dihydro-N-2-propynyl-1H-indane-1-amine hydrobromide]

D10 [2, 4]: 1.70
D50 [2, 4]: 3.66
D90 [2, 4]: 7.55
D10 [2, 5]: 1.40
D50 [2, 5]: 3.33
D90 [2, 5]: 7.88
D10 [2, 6]: 1.41
D50 [2, 6]: 2.97
D90 [2, 6]: 5.64
D10 [2, 7]: 1.43
D50 [2, 7]: 2.90
D90 [2, 7]: 5.74
Particle Size Distribution D90 ([3]; after micronization): 796.35 micron and 1007.18 micron
Particle Size Distribution D50 ([3]; before micronization): 141.23 micron and 174.70 micron
Particle Size Distribution D90 ([3]; before micronization): 590.45 micron and 832.14 micron
Particle Size Distribution D10 [1, 9]: 1.44 micron and 1.43 micron
Particle Size Distribution D50 [1, 9]: 3.00 micron and 2.90 micron
Particle Size Distribution D90 [1, 9]: 5.94 micron and 5.74 micron
Particle Size Distribution D10 [1, 10]: 3.65 micron and 3.18 micron
Particle Size Distribution D50 [1, 10]: 15.27 micron and 13.33 micron
Particle Size Distribution D90 [1, 10]: 57.38 micron and 47.11 micron
particle size of 50% of particles ([1]; micronized): less than or equal to 4 μ
particle size of 90% of particles ([1]; micronized): less than or equal to 9 μ
d10 [1]: 2-9 μ
d50 [1]: 10-20 μ
d90 [1]: 40-80 μ
Structure (SMILES): C#CCN[C@@H]1CCc2ccccc21.CS(=O)(=O)O [R(+)-Rasagiline mesylate, (1R)-2,3-dihydro-N-2-propynyl-1H-indane-1-amine mesylate]
Agglomeration of the particles on storage [2, 8]: no agglomeration of the particles was observed
Change in XRPD pattern and particle size on storage [2, 8]: no change in XRPD pattern and particle size

size of 90% of the total amount by volume of particles (micronized): less than 20 microns
size of 90% particles (not micronized): less than 500 microns
Structure (SMILES): C#CCN[C@@H]1CCc2ccccc21.Cl [R-(+)-Rasagiline hydrochloride, (1R)-2,3-dihydro-N-2-propynyl-1H-indane-1-amine hydrochloride]
